Counter-ions that a name gives are not always drawn.
Experiments:
Type in all cases: biochemical
Bovine LOX = Bovine LOX (Bos taurus (Bovine), UniProt P33072); assay: LOX inhibition, peroxidase-coupled Amplex Red amine oxidase assay; settings: 30 min preincubation at 37° C., putrescine substrate
Excerpt: (§1) Method to Determine the Ability of Compounds of the Invention to Inhibit LOX and LOXL1-4 from Different Sources
Lysyl oxidase (LOX) is an extracellular copper dependent enzyme which oxidizes peptidyl lysine and hydroxylysine residues in collagen and lysine residues in elastin to produce peptidyl alpha-aminoadipic-delta-semialdehydes. […] There are five LOX family members; these are LOX, LOXL1, LOXL2, LOXL3 and LOXL4. LOX and LOXL family members can be acquired as recombinant active proteins from commercial sources, or extracted from animal tissues like bovine aorta, tendons, pig skin; or prepared from cell cultures. The inhibitory effects of the compounds of the present invention were tested against the given LOX-LOXL preparation using a high-throughput coupled colorimetric method (Holt A. and Palcic M., A peroxidase-coupled continuous absorbance plate-reader assay for flavin monoamine oxidases, copper-containing amine oxidases and related enzymes. Nat. Protoc. 2006; 1: 2498-2505). The assay was developed using either 384 or 96 well format. Briefly, in a standard 384 well plate assay 25 μL of a dilution of any of the isoenzymes and orthologues in 1.2 M urea, 50 mM sodium borate buffer (pH 8.2) were added into each well in the presence of 1 μM mofegiline and 0.5 mM pargyline (to inhibit SSAO and MAO-B and MAO-A, respectively). […] of a reaction mixture containing twice the KM concentration of putrescine (Sigma Aldrich, e.g. 20 mM for LOX, or 10 mM for LOXL2 and LOXL3), 120 μM Amplex Red (Sigma Aldrich) and 1.5 U/mL horseradish peroxidase (Sigma Aldrich) prepared in 1.2 M urea, 50 mM sodium borate buffer (pH 8.2) were then added to the corresponding wells. The above volumes were doubled in the case of 96 wells plate. The fluorescence (RFU) was read every 2.5 min for 30 min at a range of temperatures from 37° to 45° C., excitation 565 nm and emission 590 (Optima; BMG labtech). The slope of the kinetics for each well was calculated using MARS data analysis software (BMG labtech) and this value was used to deduce the IC50 value (Dotmatics).

Human LOXL2 = Human LOXL2 (Homo sapiens (Human), UniProt Q9Y4K0); assay: LOXL2 inhibition, peroxidase-coupled Amplex Red amine oxidase assay; settings: 30 min preincubation at 37° C., putrescine substrate
Excerpt: as §1
Lysyl oxidase (LOX) is an extracellular copper dependent enzyme which oxidizes peptidyl lysine and hydroxylysine residues in collagen and lysine residues in elastin to produce peptidyl alpha-aminoadipic-delta-semialdehydes. […] There are five LOX family members; these are LOX, LOXL1, LOXL2, LOXL3 and LOXL4. LOX and LOXL family members can be acquired as recombinant active proteins from commercial sources, or extracted from animal tissues like bovine aorta, tendons, pig skin; or prepared from cell cultures. The inhibitory effects of the compounds of the present invention were tested against the given LOX-LOXL preparation using a high-throughput coupled colorimetric method (Holt A. and Palcic M., A peroxidase-coupled continuous absorbance plate-reader assay for flavin monoamine oxidases, copper-containing amine oxidases and related enzymes. Nat. Protoc. 2006; 1: 2498-2505). The assay was developed using either 384 or 96 well format. Briefly, in a standard 384 well plate assay 25 μL of a dilution of any of the isoenzymes and orthologues in 1.2 M urea, 50 mM sodium borate buffer (pH 8.2) were added into each well in the presence of 1 μM mofegiline and 0.5 mM pargyline (to inhibit SSAO and MAO-B and MAO-A, respectively). Test compounds were dissolved in DMSO and tested in a Concentration Response Curve (CRC) with 11 data points, typically in the micromolar or nanomolar range after incubation with the enzyme for 30 min at 37° C. Twenty five L of a reaction mixture containing twice the KM concentration of putrescine (Sigma Aldrich, e.g. 20 mM for LOX, or 10 mM for LOXL2 and LOXL3), 120 μM Amplex Red (Sigma Aldrich) and 1.5 U/mL horseradish peroxidase (Sigma Aldrich) prepared in 1.2 M urea, 50 mM sodium borate buffer (pH 8.2) were then added to the corresponding wells. The above volumes were doubled in the case of 96 wells plate. The fluorescence (RFU) was read every 2.5 min for 30 min at a range of temperatures from 37° to 45° C., excitation 565 nm and emission 590 (Optima; BMG labtech). The slope of the kinetics for each well was calculated using MARS data analysis software (BMG labtech) and this value was used to deduce the IC50 value (Dotmatics).

[1] = biological target: human recombinant SSAO/VAP-1 (Homo sapiens (Human), UniProt Q16853); assay: Inhibition of human recombinant SSAO/VAP-1 amine oxidase activity; settings: 30 min preincubation at 37° C., 600 μM benzylamine
Procedure: Method to Determine the Ability of Compounds of Formula I to Inhibit Human Recombinant SSAO/VAP-1
Human recombinant SSAO/VAP-1 amine oxidase activity was determined using the coupled colorimetric method as described for monoamine oxidase, copper-containing amine oxidases and related enzymes (Holt A. and Palcic M., A peroxidase-coupled continuous absorbance plate-reader assay for flavin monoamine oxidases, copper-containing amine oxidases and related enzymes. Nat Protoc 2006; 1: 2498-2505). Briefly, a cloned cDNA template corresponding to residues 34-763 of human SSAO/VAP-1, and incorporating a mouse Ig kappa (κ) signal sequence, N-terminal flag epitope tag and tobacco etch virus (TEV) cleavage site, was assembled in a mammalian expression vector (pLO-CMV) by Geneart AG. This vector containing human SSAO/VAP-1 residues was transfected into CHO-K1 glycosylation mutant cell line, Lec 8. A clone stably expressing human SSAO/VAP-1 was isolated and cultured in large scale. Active human SSAO/VAP-1 was purified and recovered using immunoaffinity chromatography. This was used as the source for SSAO/VAP-1 activity. A high-throughput colorimetric assay was developed using either 96 or 384 well format. Briefly, in a standard 96 well plate assay 50 μL of purified human SSAO/VAP-1 (0.25 μg/mL) in 0.1 M sodium phosphate buffer (pH 7.4) was added into each well. Test compounds were dissolved in DMSO and tested in a Concentration Response Curve (CRC) with 4-11 data points, typically in the micromolar or nanomolar range after incubation with human SSAO/VAP-1 for 30 min at 37° C. After 30 min incubation, 50 μL of the reaction mixture containing 600 μM benzylamine (Sigma Aldrich), 120 μM Amplex Red (Sigma Aldrich) and 1.5 U/mL horseradish peroxidase (Sigma Aldrich) prepared in 0.1 M sodium phosphate buffer (pH 7.4) were added to the corresponding well. The fluorescence unit (RFU) was read every 2.5 min for 30 min at 37° C. excitation 565 nm and emission 590 (Optima; BMG labtech). The slope of the kinetics for each well was calculated using MARS data analysis software (BMG labtech) and this value was used to deduce the IC50 value (Dotmatics).

Recombinant human MAO-B = Recombinant human MAO-B (Homo sapiens (Human), UniProt P27338); assay: Inhibition of human recombinant MAO-B; settings: benzylamine 100 μM
Procedure: Method to Determine the Ability of Compounds of Formula I to Inhibit Human Recombinant MAO-B
The specificity of the compounds of this invention was tested by determining their ability to inhibit MAO-B activities in vitro. Recombinant human MAO-B (0.06 mg/mL; Sigma Aldrich) was used as source of MAO-B enzyme activities. The assay was performed in a similar way as for human SSAO/VAP-1 (Example 66) except, the substrate benzylamine was used at 100 μM.

Chain of Human LOXL2 (Q9Y4K0 26-774): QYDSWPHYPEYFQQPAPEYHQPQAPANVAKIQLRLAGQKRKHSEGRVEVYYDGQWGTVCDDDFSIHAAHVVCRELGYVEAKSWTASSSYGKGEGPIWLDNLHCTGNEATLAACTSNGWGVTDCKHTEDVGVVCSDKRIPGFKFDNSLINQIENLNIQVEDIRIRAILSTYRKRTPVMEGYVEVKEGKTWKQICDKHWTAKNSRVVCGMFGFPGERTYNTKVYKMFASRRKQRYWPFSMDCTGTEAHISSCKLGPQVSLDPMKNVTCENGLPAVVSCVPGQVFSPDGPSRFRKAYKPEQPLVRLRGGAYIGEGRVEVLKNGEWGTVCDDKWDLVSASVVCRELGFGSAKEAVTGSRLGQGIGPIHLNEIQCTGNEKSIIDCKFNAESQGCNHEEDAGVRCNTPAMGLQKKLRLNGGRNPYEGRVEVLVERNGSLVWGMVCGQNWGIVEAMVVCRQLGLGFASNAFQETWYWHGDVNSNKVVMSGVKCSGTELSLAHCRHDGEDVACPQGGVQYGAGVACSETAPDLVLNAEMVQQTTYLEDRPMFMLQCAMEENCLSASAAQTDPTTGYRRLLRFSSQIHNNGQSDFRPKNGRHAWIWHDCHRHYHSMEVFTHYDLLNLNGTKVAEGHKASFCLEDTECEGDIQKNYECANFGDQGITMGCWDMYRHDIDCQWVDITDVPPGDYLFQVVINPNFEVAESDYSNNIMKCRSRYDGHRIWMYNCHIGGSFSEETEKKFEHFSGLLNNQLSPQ
Chain of human recombinant SSAO/VAP-1 (Q16853 34-763): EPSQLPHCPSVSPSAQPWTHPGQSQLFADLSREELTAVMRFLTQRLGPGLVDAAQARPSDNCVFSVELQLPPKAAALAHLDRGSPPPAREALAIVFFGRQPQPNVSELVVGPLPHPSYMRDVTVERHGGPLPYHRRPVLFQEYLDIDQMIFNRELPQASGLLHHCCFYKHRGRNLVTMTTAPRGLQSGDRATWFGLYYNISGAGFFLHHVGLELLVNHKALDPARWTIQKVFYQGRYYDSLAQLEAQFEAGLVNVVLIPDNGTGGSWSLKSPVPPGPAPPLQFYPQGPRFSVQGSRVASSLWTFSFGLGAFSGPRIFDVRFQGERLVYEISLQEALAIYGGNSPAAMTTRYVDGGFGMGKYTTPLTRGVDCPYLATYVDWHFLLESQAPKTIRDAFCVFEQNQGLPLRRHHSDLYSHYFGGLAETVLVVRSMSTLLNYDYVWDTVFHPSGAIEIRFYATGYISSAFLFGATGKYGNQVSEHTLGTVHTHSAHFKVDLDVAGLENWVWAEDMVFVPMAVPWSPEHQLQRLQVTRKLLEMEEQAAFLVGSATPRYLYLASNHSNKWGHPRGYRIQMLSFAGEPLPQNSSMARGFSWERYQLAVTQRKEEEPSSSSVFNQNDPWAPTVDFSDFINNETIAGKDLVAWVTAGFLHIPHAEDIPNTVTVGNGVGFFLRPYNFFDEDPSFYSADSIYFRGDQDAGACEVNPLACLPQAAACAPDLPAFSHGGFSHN
Chain of Bovine LOX (P33072 170-418): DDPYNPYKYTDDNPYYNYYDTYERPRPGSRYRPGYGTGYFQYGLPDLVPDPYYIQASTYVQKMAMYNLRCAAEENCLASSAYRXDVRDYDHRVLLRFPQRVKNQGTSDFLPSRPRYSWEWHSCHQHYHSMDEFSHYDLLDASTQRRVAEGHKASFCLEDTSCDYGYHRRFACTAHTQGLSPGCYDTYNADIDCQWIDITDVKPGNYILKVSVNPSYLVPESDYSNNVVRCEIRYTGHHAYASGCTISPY
Chain of Recombinant human MAO-B (P27338 whole entry): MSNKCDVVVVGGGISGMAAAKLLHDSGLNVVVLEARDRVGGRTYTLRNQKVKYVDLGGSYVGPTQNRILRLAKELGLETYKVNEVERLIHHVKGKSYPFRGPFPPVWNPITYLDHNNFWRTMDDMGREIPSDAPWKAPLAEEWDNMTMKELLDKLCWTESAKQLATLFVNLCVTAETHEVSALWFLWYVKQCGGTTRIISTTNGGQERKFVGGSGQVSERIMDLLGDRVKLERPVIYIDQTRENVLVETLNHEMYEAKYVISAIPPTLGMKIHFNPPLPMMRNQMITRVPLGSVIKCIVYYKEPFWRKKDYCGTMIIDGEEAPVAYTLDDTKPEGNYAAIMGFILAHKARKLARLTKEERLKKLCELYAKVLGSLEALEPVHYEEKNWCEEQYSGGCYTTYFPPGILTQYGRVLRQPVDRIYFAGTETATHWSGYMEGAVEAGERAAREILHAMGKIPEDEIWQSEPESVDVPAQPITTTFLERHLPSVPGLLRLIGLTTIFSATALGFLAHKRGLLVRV

SMILES | IC50 (Bovine LOX) [µM] | IC50 (Human LOXL2) [µM] | IC50 [1] [µM] | IC50 (Recombinant human MAO-B) [µM]
Cc1c(-c2ccccc2)c2cc(S(C)(=O)=O)ccc2n1C/C(F)=C/CN [Compound 87, (Z)-3-fluoro-4-(2-methyl-5-(methylsulfonyl)-3-phenyl-1H-indol-1-yl)but-2-en-1-amine] | > 0.3 | < 0.3 | > 3 | > 3
CN(C)S(=O)(=O)c1cccc(-c2c(Cl)n(C/C(F)=C/CN)c3ccc(S(C)(=O)=O)cc23)c1 [Compound 100, (Z)-3-(1-(4-amino-2-fluorobut-2-en-1-yl)-2-chloro-5-(methylsulfonyl)-1H-indol-3-yl)-N,N-dimethylbenzenesulfonamide] | > 0.3 | < 0.3 | > 3 | > 3
CN(C)S(=O)(=O)c1cncc(-c2cn(C/C(F)=C/CN)c3ccc(Cl)cc23)c1 [Compound 66, (Z)-5-(1-(4-amino-2-fluorobut-2-en-1-yl)-5-chloro-1H-indol-3-yl)-N,N-dimethylpyridine-3-sulfonamide] | > 0.3 | < 0.3 | > 3 | > 3
Cc1c(-c2cccc(S(=O)(=O)N(C)C)c2)c2cc(S(=O)(=O)C(C)C)ccc2n1C/C(F)=C/CN [Compound 106, (Z)-3-(1-(4-amino-2-fluorobut-2-en-1-yl)-5-(isopropylsulfonyl)-2-methyl-1H-indol-3-yl)-N,N-dimethyl-benzenesulfonamide Hydrochloride] | > 0.3 | < 0.3 | > 3 | > 3
Cc1c(-c2cccc(S(=O)(=O)C(F)(F)F)c2)c2cc(C(=O)N(C)C)ccc2n1C/C(F)=C/CN [Compound 57, (Z)-1-(4-amino-2-fluorobut-2-en-1-yl)-N,N,2-trimethyl-3-(3-((trifluoromethyl)sulfonyl)phenyl)-1H-indole-5-carboxamide] | > 0.3 | < 0.3 | > 3 | > 3
Cc1c(-c2cncc(S(=O)(=O)N(C)C)c2)c2cc(Cl)cnc2n1C/C(F)=C/CN [Compound 73, (Z)-5-(1-(4-amino-2-fluorobut-2-en-1-yl)-5-chloro-2-methyl-1H-pyrrolo[2,3-b]pyridin-3-yl)-N,N-dimethylpyridine-3-sulfonamide] | > 0.3 | < 0.3 | > 3 | > 3
Cc1ccc(S(=O)(=O)N(C)C)cc1-c1c(C)n(C/C(F)=C/CN)c2ccc(C(=O)O)cc12 [Compound 20, (Z)-1-(4-amino-2-fluorobut-2-en-1-yl)-3-(5-(N,N-dimethylsulfamoyl)-2-methylphenyl)-2-methyl-1H-indole-5-carboxylic acid] | > 0.3 | < 0.3 | > 3 | > 3
CNS(=O)(=O)c1cncc(-c2c(C)n(C/C(F)=C/CN)c3ccc(Cl)cc23)c1 [Compound 70, (Z)-5-(1-(4-amino-2-fluorobut-2-en-1-yl)-5-chloro-2-methyl-1H-indol-3-yl)-N-methylpyridine-3-sulfonamide] | > 0.3 | < 0.3 | > 3 | > 3
Cc1c(-c2cccc(S(=O)(=O)N(C)C)c2)c2cc(C(=O)O)ccc2n1C/C(F)=C/CN [Compound 8, (Z)-1-(4-amino-2-fluorobut-2-en-1-yl)-3-(3-(N,N-dimethylsulfamoyl)phenyl)-2-methyl-1H-indole-5-carboxylic acid] | > 0.3 | < 0.3 | > 3 | > 3
CN(C)S(=O)(=O)c1cccc(-c2c(Cl)n(C/C(F)=C/CN)c3cccnc23)c1 [Compound 99, (Z)-3-(1-(4-amino-2-fluorobut-2-en-1-yl)-2-chloro-1H-pyrrolo[3,2-b]pyridin-3-yl)-N,N-dimethylbenzenesulfonamide] | > 0.3 | < 0.3 | > 3 | > 3
Cc1c(-c2cccc(S(=O)(=O)N(C)C)c2)c2cc(C(=O)O)c(F)cc2n1C/C(F)=C/CN [Compound 21, (Z)-1-(4-amino-2-fluorobut-2-en-1-yl)-3-(3-(N,N-dimethylsulfamoyl)phenyl)-6-fluoro-2-methyl-1H-indole-5-carboxylic acid] | > 0.3 | < 0.3 | > 3 | > 3
CCOC(=O)c1cccc(-c2c(C)n(C/C(F)=C/CN)c3ccc(S(=O)(=O)N(C)C)cc23)c1 [Compound 33, ethyl (Z)-3-(1-(4-amino-2-fluorobut-2-en-1-yl)-5-(N,N-dimethylsulfamoyl)-2-methyl-1H-indol-3-yl)benzoate] | > 0.3 | < 0.3 | > 3 | > 3
Cc1c(-c2cccc(C(=O)N(C)C)c2)c2cc(C(=O)O)ccc2n1C/C(F)=C/CN [Compound 16, (Z)-1-(4-amino-2-fluorobut-2-en-1-yl)-3-(3-(dimethylcarbamoyl)phenyl)-2-methyl-1H-indole-5-carboxylic Acid Hydrochloride] | > 0.3 | < 0.3 | > 3 | > 3
COC(=O)c1ccc2c(c1)c(-c1cccc(S(=O)(=O)N(C)C)c1)c(C)n2C/C(F)=C/CN [Compound 5, Hydrochloride] | > 0.3 | < 0.3 | > 3 | > 3

Source: US10717733B2, “Haloallylamine indole and azaindole derivative inhibitors of lysyl oxidases and uses thereof” (PHARMAXIS LTD., priority 2016, dated 2020)
